The values below come from patent publication US10280188B2, “Fluorine-containing bisphosphonic acid derivative and use thereof” (NAGASAKI UNIVERSITY, priority 2015, dated 2019).

In data set [1] the test system is human histiocytic tumor cell line U937. Put plainly: CD107a expression of Vδ2 positive γδ T cells on compound-treated U937 cells (flow cytometry). The conditions noted are these: U937 treated 2 hr; Vδ2 positive γδ T cells from normal adult (1). Type of data set: cell-based. As to the method:
Furthermore, PE-labeled anti-human CD107a monoclonal antibody (5 μL) was added, and the mixture was incubated at 37° C. for 2 hr. Thereto was added FITC-labeled anti-human Vδ2 monoclonal antibody (2 μL), and the mixture was incubated on ice for 20 min. This was washed 3 times with 2% FCS-added PBS, and suspended in 200 μL of 2% FCS-added PBS.
On the technique in general: In flow cytometry, cells or beads pass a laser one at a time.

For data set [2], the system named is Vδ2 positive γδ T cells in peripheral blood mononuclear cells of adult T cell leukemia patients. Put plainly: Induction of Vδ2 positive γδ T cell proliferation from peripheral blood mononuclear cells of adult T cell leukemia patients (FACS). The conditions noted are these: ZOLF-POM 1 μM, cultured 11 days with IL-2. Type of data set: cell-based, human. As to the method:
(§1) Heparin blood samples (peripheral blood 10 mL) were collected from adult T cell leukemia patients (1), and diluted with 10 mL of PBS. This was overlaid on 20 mL of Ficoll-Paque and subjected to density gradient centrifugation at 600×g for 30 min at room temperature. The layer directly above Ficoll-Paque was recovered, and washed 3 times with PBS to give peripheral blood mononuclear cells. The cells were suspended in 7 mL of Yssel medium, 1 mL therefrom was stained with PE-labeled anti-human CD3 monoclonal antibody and FITC-labeled anti-human Vδ2 monoclonal antibody, and analyzed by flow cytometer. As a result, as shown in the panel on the left side in FIG. 2, Vδ2 positive γδ T cells accounted for 0.75% of lymphocyte gate. […] As a result, as shown in the panel on the right side in FIG. 2, Vδ2 positive γδ T cells accounted for 91.48% of lymphocyte gate.
as §1, with “(2),” for “(1),”, “3,” for “2,”, “1.58%” for “0.75%”, “96.83%” for “91.48%”
Heparin blood samples (peripheral blood 10 mL) were collected from adult T cell leukemia patients (3), and diluted with 10 mL of PBS. […] The cells were suspended in 7 mL of Yssel medium, 1 mL therefrom was stained with PE-labeled anti-human CD3 monoclonal antibody and FITC-labeled anti-human Vδ2 monoclonal antibody, and analyzed by flow cytometer. […]

Data set [3] relates to adult T cell leukemia cell line HCT-4. Put plainly: Specific cytotoxicity of Vδ2 positive γδ T cells on compound-treated HCT-4 (time-resolved fluorescence). To be noted: γδ T cells from adult T cell leukemia patients (4), E/T 1.25:1-80:1, 1 and 10 μM tested.
Procedure: Adult T cell leukemia cell line HCT-4 cells were suspended in RPMI1640 medium at a cell concentration of 1×10^6/mL, and dispensed by 1 mL to a 15 mL conical tube. This was centrifuged at 600×g for 5 min, and the supernatant was removed. […] Thereto was added 10 mM lanthanoid metal chelating agent by 2.5 μL, and the mixture was further incubated for 15 min. These conical tubes were centrifuged at 600×g for 5 min, and the cell pellets were washed 3 times with RPMI1640 medium. Then, the cell pellets were suspended in 5 mL of RPMI1640 medium, 2 mL therefrom was placed in a different conical tube, and 6 mL of RPMI1640 medium was further added. The cell suspension was seeded by 100 μL in a 96 well round bottom plate. […] The plate was centrifuged at 600×g for 2 min, 25 μL of culture supernatant was taken, and diluted with 200 μL of europium-added acetate buffer. The mixture was taken by 200 μL, and time-resolved fluorescence was measured.
The test system of data set [4] is human bladder cancer cell line EJ-1. Put plainly: Specific cytotoxicity of Vδ2 positive γδ T cells on compound-treated EJ-1 (time-resolved fluorescence). To be noted: γδ T cells from normal adult (1), E/T 0:1-40:1.
Procedure: Human bladder cancer cell line EJ-1 cells were suspended in RPMI1640 medium at a cell concentration of 1×10^6/mL, and dispensed by 1 mL to a 15 mL conical tube. This was centrifuged at 600×g for 5 min, and the supernatant was removed. […] The compound solutions of the dilution series were added by 1 mL to the cell pellets after removal of the supernatant and incubated at 37° C. for 1 hr 45 min. Thereto was added 10 mM lanthanoid metal chelating agent by 2.5 μL, and the mixture was further incubated for 15 min. These conical tubes were centrifuged at 600×g for 5 min, and the cell pellets were washed 3 times with RPMI1640 medium. Then, the cell pellets were suspended in 5 mL of RPMI1640 medium, 2 mL therefrom was placed in a different conical tube, and 6 mL of RPMI1640 medium was further added. The cell suspension was seeded by 100 μL in a 96 well round bottom plate. Vδ2 positive γδ T cells derived from normal adult (1) were reacted at an effector cell/target cell ratio of 0:1, 5:1, 10:1, 20:1, 40:1, and incubated for 40 min at 37° C. The plate was centrifuged at 600×g for 2 min, 25 μL of culture supernatant was taken, and diluted with 200 μL of europium-added acetate buffer. The mixture was taken by 200 μL, and time-resolved fluorescence was measured.
In data set [5] the test system is Vδ2 positive γδ T cells in peripheral blood mononuclear cells of lung cancer patients. Briefly: Induction of Vδ2 positive γδ T cell proliferation from peripheral blood mononuclear cells of lung cancer patients (FACS). The format is cell-based, human. The conditions noted are these: ZOLF-POM 1 μM, cultured 11 days with IL-2. As to the method:
as §1, with “collected from lung cancer patients (1),” for “collected from adult T cell leukemia patients (1),”, “with 10 ml of PBS.” for “with 10 mL of PBS.”, “in FIG. 5, Vδ2 positive” for “in FIG. 2, Vδ2 positive”, “accounted for 4.14% of lymphocyte” for “accounted for 0.75% of lymphocyte”, “accounted for 98.59% of lymphocyte” for “accounted for 91.48% of lymphocyte”
Heparin blood samples (peripheral blood 10 mL) were collected from lung cancer patients (2), and diluted with 10 mL of PBS. This was overlaid on 20 mL of Ficoll-Paque and subjected to density gradient centrifugation at 600×g for 30 min at room temperature. […] The cells were suspended in 7 mL of Yssel medium, 1 mL therefrom was stained with PE-labeled anti-human CD3 monoclonal antibody and FITC-labeled anti-human Vδ2 monoclonal antibody, and analyzed by flow cytometer. […]

In data set [6] the test system is human histiocytic tumor cell line U937. Put plainly: Specific cytotoxicity of Vδ2 positive γδ T cells on compound-treated U937 (time-resolved fluorescence). As to the method:
A dilution series of 0 μM, 100 μM, 300 μM, 1000 μM was prepared for ZOLF.
A dilution series of 0 μM, 300 μM, 1000 μM, 3000 μM was prepared for ALEF.
A dilution series of 0 μM, 300 μM, 1000 μM, 3000 μM was prepared for PAMF.
A dilution series of 0 μM, 300 μM, 1000 μM, 3000 μM was prepared for IBAF.

[7] abbreviates: U937, γδ T cells from normal adult (1), E/T 0:1-40:1.

Structures are written as SMILES. Where two headings read alike, the source gives them in different places.

Consider `CC(C)(C)C(=O)OCOP(=O)(OCOC(=O)C(C)(C)C)C(F)(Cn1ccnc1)P(=O)(OCOC(=O)C(C)(C)C)OCOC(=O)C(C)(C)C` [ZOLF-POM, tetrakispivaloyloxymethyl-1-fluoro-2-(1H-imidazoyl-1-ethylidene)-1,1-bisphosphonate], for which the “compound concentration that induces maximum CD107a expression” value in data set [1] is “about 100 nM”. The “Vδ2 positive γδ T cells, proportion of lymphocyte gate” value in data set [2] (adult T cell leukemia patient (1), 0.75% before culture) is listed as 91.48%; in data set [2] (adult T cell leukemia patient (2), 1.58% before culture) it was 96.83%; in data set [2] (adult T cell leukemia patient (3), 0.49% before culture), 98.29%; in data set [5] (lung cancer patient (1), 4.14% before culture), 98.59%; in data set [5] (lung cancer patient (2), 1.95% before culture), 95.72%. The “concentration at which sensitivity to cytotoxicity activity of Vδ2 positive γδ T cells is promoted” value in data set [3] is on record as “at least 1 μM”; in data set [4], “at least 1.25 μM”.

`O=P(O)(O)C(F)(Cn1ccnc1)P(=O)(O)O` [ZOLF, 1-fluoro-(2-imidazoyl-1-ethylidene)-1,1-bisphosphonic acid]: the “compound concentration that induces maximum CD107a expression” value in data set [1] is given as “several hundred”.

`CCCCCN(C)CCC(F)(P(=O)(O)O)P(=O)(O)O` [IBAF, 1-fluoro-3-(methyl(pentyl)amino)propylidene-1,1-bisphosphonic acid]: in data set [6], the “concentration at which sensitivity to cytotoxicity activity of Vδ2 positive γδ T cells is promoted” value is on record as “at least 300 μM”.

As for `NCCC(F)(P(=O)(O)O)P(=O)(O)O` [PAMF, 3-amino-1-fluoro-propylidene-1,1-bisphosphonic acid], the “concentration at which sensitivity to cytotoxicity activity of Vδ2 positive γδ T cells is promoted” value in data set [6] (setting [7]) is on record as “at least 300 μM”. Besides, in data set [1], the “compound concentration that induces maximum CD107a expression” value is “several hundred”.

As for `NCCCC(F)(P(=O)(O)O)P(=O)(O)O` [ALEF, 4-amino-1-fluoro-butylidene-1,1-bisphosphonic acid], the “concentration at which sensitivity to cytotoxicity activity of Vδ2 positive γδ T cells is promoted” value in data set [6] (setting [7]) was “at least 300 μM”. The “compound concentration that induces maximum CD107a expression” value in data set [1] was “several hundred”.
